From ChEMBL document CHEMBL1142573, “Suaveolindole, a new mass-limited antibacterial indolosesquiterpene from Greenwayodendron suaveolens obtained via high-throughput natural products chemistry methods” (2005)
Values after ≈ are worked out from the molar mass of the structure shown.

Experiments:
Format in all cases: functional
[1] = tested on: Bacillus subtilis; assay: Antimicrobial activity against Bacillus subtilis ATCC 43223
[2] = tested on: Staphylococcus aureus; assay: Antimicrobial activity against Staphylococcus aureus ATTC 6538P
[3] = tested on: Staphylococcus aureus; assay: Antimicrobial activity against methicillin-resistant Staphylococcus aureus ATTC 33591
[4] = tested on: Enterococcus faecalis; assay: Antimicrobial activity against vancomycin-resistant Enterococcus faecalis VRE ATCC 51575
[5] = tested on: Klebsiella pneumoniae; assay: Antimicrobial activity against Klebsiella pneumoniae ATCC 10031
[6] = tested on: Pseudomonas aeruginosa; assay: Antimicrobial activity against Pseudomonas aeruginosa ATCC 9027

CC(C)=C1CC[C@@H](C)[C@@](C)(Cc2c[nH]c3ccccc23)[C@@H]1CCC(=O)O [SUAVEOLINDOLE]
MIC [1]: 4 µg/mL (≈ 11.3 µM) | MIC [2]: 8 µg/mL (≈ 22.6 µM) | MIC [3]: 8 µg/mL (≈ 22.6 µM) | MIC [4]: > 32 µg/mL | MIC [5]: > 128 µg/mL | MIC [6]: > 128 µg/mL
